Measurements published in the NIST ThermoML archive (doi:10.1021/je4000372).

Assay: xn = mol fraction of the nth substance listed
Conditions: 101 kPa, Liquid; for viscosity: Capillary tube (Ostwald / Ubbelohde) method; for mass density: Pycnometric method

CCCCOCCOCCO [3,6-dioxa-1-decanol] + OCCNCCO
Conditions	mass density, 293.15 K [kg/m3]	mass density, 303.15 K [kg/m3]	mass density, 313.15 K [kg/m3]	mass density, 323.15 K [kg/m3]	mass density, 333.15 K [kg/m3]	viscosity, 293.15 K [mPa·s]	viscosity, 303.15 K [mPa·s]	viscosity, 313.15 K [mPa·s]	viscosity, 323.15 K [mPa·s]	viscosity, 333.15 K [mPa·s]
x1 = 0.03299	1088.3	1081.8	1075.8	1069.4	1062.8	681.3	290.7	156.2	80.04	46.73
x1 = 0.06718	1080.7	1074.2	1068	1061.5	1054.9	550.2	231.6	122.5	66.29	38.49
x1 = 0.1026	1073.2	1066.5	1060.3	1053.6	1046.9	425.1	189.9	98.2	53.87	31.99
x1 = 0.1394	1065.8	1058.9	1052.5	1045.7	1038.8	321.3	150.1	81.15	43.18	26.71
x1 = 0.2174	1050.9	1043.7	1037.1	1029.9	1022.8	191.6	96.21	53.26	30.37	19.13
x1 = 0.3018	1036.3	1028.7	1021.9	1014.5	1007.3	114.4	59.95	34.51	20.74	13.22
x1 = 0.3933	1021.9	1014	1007	999.2	991.8	65.16	37.05	22.29	14.26	9.429
x1 = 0.4929	1007.7	999.5	992.3	984.2	976.7	38.57	22.76	14.83	9.416	6.995
x1 = 0.6019	993.8	985.2	977.9	969.6	961.9	23.75	14.92	10.02	7.041	5.178
x1 = 0.7008	982.3	973.5	966.1	957.6	949.8	15.75	10.43	7.262	5.199	3.927
x1 = 0.7558	976.4	967.5	960	951.4	943.5	12.19	8.762	6.011	4.251	3.358
x1 = 0.8059	971.2	962.2	954.7	946	938.1	10.43	7.305	5.293	3.759	3.035
x1 = 0.8537	966.4	957.3	949.7	940.9	933	8.982	6.312	4.629	3.407	2.756
x1 = 0.9031	961.6	952.4	944.8	935.9	927.9	7.858	5.501	4.032	3.028	2.463
x1 = 1	952.9	943.5	935.7	926.6	918.5	5.84	4.23	3.22	2.51	2

CCCCOCCOCCO [3,6-dioxa-1-decanol] + NCCO
Conditions	mass density, 293.15 K [kg/m3]	mass density, 303.15 K [kg/m3]	mass density, 313.15 K [kg/m3]	mass density, 323.15 K [kg/m3]	mass density, 333.15 K [kg/m3]	viscosity, 293.15 K [mPa·s]	viscosity, 303.15 K [mPa·s]	viscosity, 313.15 K [mPa·s]	viscosity, 323.15 K [mPa·s]	viscosity, 333.15 K [mPa·s]
x1 = 0.04025	1010.3	1002.5	994.3	986.2	978.2	23.11	14.27	9.52	6.64	4.82
x1 = 0.08607	1004.5	996.6	988.5	980.4	972.5	21.86	13.61	9.1	6.37	4.65
x1 = 0.1392	998.5	990.5	982.5	974.3	966.4	20.39	12.86	8.62	6.07	4.43
x1 = 0.2008	992.5	984.2	976.4	968.1	960.1	18.81	11.99	8.08	5.73	4.19
x1 = 0.2732	986.4	977.9	970.1	961.7	953.7	17.01	11.01	7.47	5.33	3.91
x1 = 0.3602	980.2	971.5	963.7	955.1	947.1	15.02	9.83	6.76	4.88	3.61
x1 = 0.4111	976.9	968.2	960.4	951.8	943.7	13.86	9.16	6.37	4.63	3.45
x1 = 0.4671	973.8	964.9	957.2	948.4	940.4	12.72	8.51	5.97	4.37	3.28
x1 = 0.4977	972.1	963.3	955.5	946.7	938.7	12.16	8.17	5.77	4.23	3.19
x1 = 0.6007	967.1	958.1	950.3	941.5	933.5	10.46	7.18	5.12	3.79	2.91
x1 = 0.7204	962	952.9	945.2	936.3	928.3	8.65	6.21	4.42	3.34	2.59
x1 = 0.7699	960.2	951.1	943.3	934.4	926.4	8.02	5.82	4.17	3.17	2.48
x1 = 0.8163	958.5	949.3	941.6	932.7	924.7	7.42	5.47	3.96	3.02	2.37
x1 = 0.9331	954.8	945.5	937.7	928.7	920.7	6.34	4.62	3.48	2.69	2.11
x1 = 1	952.9	943.5	935.7	926.6	918.5	5.84	4.23	3.22	2.51	2

OCCN(CCO)CCO [triethanolamine] + CCCCOCCOCCO
Conditions	mass density, 293.15 K [kg/m3]	mass density, 303.15 K [kg/m3]	mass density, 313.15 K [kg/m3]	mass density, 323.15 K [kg/m3]	mass density, 333.15 K [kg/m3]	viscosity, 293.15 K [mPa·s]	viscosity, 303.15 K [mPa·s]	viscosity, 313.15 K [mPa·s]	viscosity, 323.15 K [mPa·s]	viscosity, 333.15 K [mPa·s]
x2 = 0	1124.3	1118.5	1112.8	1107.1	1101.5	917.6	404.7	203.9	108.3	64.2
x2 = 0.09279	1105.1	1098.9	1093.1	1087.2	1081.4	491.9	228.3	112.58	69.65	43.5
x2 = 0.1871	1086.3	1079.9	1073.9	1067.5	1061.6	269.8	126.6	67.74	44.43	28.3
x2 = 0.2841	1067.9	1061	1054.8	1048.1	1041.8	153.2	69.69	40.77	28.48	18.4
x2 = 0.3804	1050.4	1043.1	1036.7	1029.5	1022.9	85.31	41.88	25.92	17.59	12.6
x2 = 0.4787	1033.3	1025.6	1018.9	1011.4	1004.5	50.08	26.39	16.38	–	8.97
x2 = 0.5789	1016.5	1008.5	1001.6	993.7	986.6	30.52	17.51	10.81	8.79	6.52
x2 = 0.6816	999.9	991.7	984.6	976.4	969	18.81	10.74	7.41	5.83	4.71
x2 = 0.7855	983.9	975.2	967.9	959.5	951.9	12.36	8.16	–	4.35	3.54
x2 = 0.8923	968.1	959.1	951.5	942.7	934.9	8.49	6.01	–	3.39	2.67
